Measured values: patent US4363812A, “3-(Tetrazol-5-yl), 4-methyl-8-alkoxy coumarins and anti-allergic compositions thereof” (priority 1978, dated 1982)
Where a name gives a salt, the structure may show the parent alone. Read-outs that look alike come from different tables or passages of the source.

Key:
[1] = acute toxicity, oral, in mice; assay type: in vivo; conditions: mouse, in vivo, po
Description: (§1) Moreover, the introduction of substituent groups such as an alkoxyl group, an alkenyloxy group and hydroxyl group to the 5, 6, 7 or 8 position of the coumarin ring brings the decrease of toxicity.
(§2) With respect to the present 3-(1H-tetrazol-5-yl)coumarin derivatives, there was tested acute toxicity in mice.
(§3) After normal female Slc: ddy mice 4 weeks old were purchased and fed preliminarily in this lavoratory for a week, these mice weighing 25-27 g. were used in the test. The present compounds to be tested, were suspended in a 10% gum arabic solution and administered orally […]. body weight to mice. Each dose level was given to a group of ten animals and the survivors were kept under observation for 6 days. The numbers of dead animals were counted and the LD50 values in mg./kg. body weight were calculated by the method of Litchfield-Wilcoxon.

[2] = system: passive cutaneous anaphylaxis (PCA) mediated by homocytotropic antibodies (HTA); test: passive cutaneous anaphylaxis (PCA) test, oral, in rats; assay type: in vivo, rat (Wistar); conditions: for minimal effective dose: Rattus norvegicus
Description: With respect to the present 3-(1H-tetrazol-5-yl)coumarin derivatives, there was tested antiallergic activity concerning passive cutaneous anaphylaxis (PCA) mediated by homocytotropic antibodies (HTA) in rats.
(i) Preparation of antisera
2,4-Dinitrophenyl-coupled ascaris extract (DNP-As) used as antigen, was prepared according to the methods of Strejan et al [cf. J. Immunol., Vol. 98, 893(1967)] and Eisen [cf. J. Amer. Chem. Soc., Vol. 75. 4593(1953)]. Antisera containing HTA were prepared in rats according to the method of Tada and Okumura [cf. J. Immunol., Vol. 106, 1002(1971)] as follows:
Female wister rats weighing 180 to 200 g. were splenectomized and several days later immunized by injecting into all four footpads a total of 1 mg. of DNP-As mixed with 10^10 Bordetella pertussis. After 5 days, 0.5 mg. of DNP-As alone was injected subcutaneously into the back of rats. Eight days after the first immunization, blood was collected by aortic puncture under ether anaesthesea and antisera obtained by these procedures were pooled and stored at -80° C.
The titer of the pooled autiserum was determined in rats by the 72 hr. PCA which method was described in the following item (ii), i.e. the highest dilution of antiserum producing a diameter of approximately 5 mm. was usually 1:500.
(ii) Assessment of PCA in rats
Normal wister rats weighing 140 to 160 g. were sensitized passively by injection intradermal on the shaved back skin 0.05 ml. of the diluted antisera (1:30). After 72 hours, the animals were injected intravenously 1 ml. of physiological salt solution containing 2 mg. DNP-As and 2.5 mg. Evans' blue.
The present compounds to be tested were given orally 30 minutes before antigen challenge. The animals were exsanguinated 30 minutes after challenge with the antigens and the skins were exfoliated. The intensities of PCA were evaluated by measuring the amount of leaked dye. The amount of dye leaked as a result of PCA was extracted according to the method of Harada et al [cf. Jpn. J. Allergol., Vol. 15, 1(1966)] and measured photometrically.

experimental asthma = test: model of experimental asthma in animals; assay type: in vivo; conditions: oral administration
mice = test: acute toxicity, oral, in mice; assay type: in vivo; conditions: Table 4; oral, female Slc: ddy mice, 6 days observation, Litchfield-Wilcoxon; 8640 min
Description: as §1, §2, §3

[3] = antiallergic activity (general statement); conditions: compared with coumarin derivatives of Japanese Publication No. 64273/1975
[4] = Table 4, oral, female Slc: ddy mice, 6 days observation, Litchfield-Wilcoxon, read-out: LD50
[5] = Table 3, oral 30 minutes before antigen challenge, rats, lowest dose significantly decreasing leaked dye vs control, read-out: MED (minimum effect dose)
[6] = LD50 (50% lethal dose), Table 1, orally in mice
[7] = po, read-out: MED (minimum effective dose)
[8] = read-out: MED (minimum effect dose)

| Compound | LD50 at 144 h [1, 4] | minimal effective dose [2, 5] | further results |
| --- | --- | --- | --- |
| CCCOc1cccc2cc(-c3nnn[nH]3)c(=O)oc12 [Example 5, 8-n-Propoxy-3-(1H-tetrazol-5-yl)coumarin] | 2000 to 3000 mg/kg | 6.25 mg/kg |  |
| CCCCCCCCCCCCCCCOc1cccc2cc(-c3nnn[nH]3)c(=O)oc12 [Example 14, 8-n-Pentadecyloxy-3-(1H-tetrazol-5-yl)coumarin] | 2000 to 3000 mg/kg | 6.25 mg/kg |  |
| CCCCCOc1cccc2cc(-c3nnn[nH]3)c(=O)oc12 [Example 1, 8-n-Pentyloxy-3-(1H-tetrazol-5-yl)coumarin] | 1330 mg/kg |  | LD50 at 144 h [1, 6]: 1330 mg/kg; minimal effective dose [2, 7]: 1.56 mg/kg; minimal effective dose [2, 8]: 1.56 mg/kg |
| Cc1cc(O)c2oc(=O)c(-c3nnn[nH]3)cc2c1 [Example 27, 8-Hydroxy-6-methyl-3-(1H-tetrazol-5-yl)coumarin] | 2000 to 3000 mg/kg | 12.5 mg/kg |  |
| CC(C)Oc1cccc2cc(-c3nnn[nH]3)c(=O)oc12 [Example 6, 8-Isopropoxy-3-(1H-tetrazol-5-yl)coumarin] | 2250 mg/kg |  | LD50 at 144 h [1, 6]: 2250 mg/kg; minimal effective dose [2, 7]: 1.56 mg/kg; minimal effective dose [2, 8]: 1.56 mg/kg |
| CCOc1cc(C)cc2cc(-c3nnn[nH]3)c(=O)oc12 [Example 20, 8-Ethoxy-6-methyl-3-(1H-tetrazol-5-yl)coumarin] | 2360 mg/kg |  | LD50 at 144 h [1, 6]: 2360 mg/kg; minimal effective dose [2, 7]: 1.56 mg/kg; minimal effective dose [2, 8]: 1.56 mg/kg |
| CC(C)=CCC/C(C)=C/COc1cccc2cc(-c3nnn[nH]3)c(=O)oc12 [Example 17, 8-Geranyloxy-3-(1H-tetrazol-5-yl)coumarin] | 500 to 1000 mg/kg | 6.25 mg/kg |  |
| CCCOc1ccc2cc(-c3nnn[nH]3)c(=O)oc2c1 [Example 7, 7-n-Propoxy-3-(1H-tetrazol-5-yl)coumarin] | 2000 to 3000 mg/kg | 6.25 mg/kg |  |
| CCCOc1cc(C)cc2cc(-c3nnn[nH]3)c(=O)oc12 [Example 21, 6-Methyl-8-n-propoxy-3-(1H-tetrazol-5-yl)coumarin] | 1000 to 2000 mg/kg | 1.56 mg/kg |  |
| CC(C)CCOc1cccc2cc(-c3nnn[nH]3)c(=O)oc12 [Example 9, 8-Isopentyloxy-3-(1H-tetrazol-5-yl)coumarin] | 1000 to 2000 mg/kg | 0.39 mg/kg |  |
| O=c1oc2c(O)cccc2cc1-c1nnn[nH]1 [Example 19, 8-Hydroxy-3-(1H-tetrazol-5-yl)coumarin] | 2000 to 3000 mg/kg | 25 mg/kg |  |
| CCOc1cc(OCC)c2cc(-c3nnn[nH]3)c(=O)oc2c1 [Example 30, 5,7-Diethoxy-3-(1H-tetrazol-5-yl)coumarin] | 2000 to 3000 mg/kg | 12.5 mg/kg |  |
| CCCCCCOc1cccc2cc(-c3nnn[nH]3)c(=O)oc12 [Example 10, 8-n-Hexyloxy-3-(1H-tetrazol-5-yl)coumarin] | 2650 mg/kg |  | therapeutic effect in experimental asthma (experimental asthma): shows a therapeutic effect; LD50 at 144 h [1, 6]: 2650 mg/kg; minimal effective dose [2, 7]: 1.56 mg/kg; minimal effective dose [2, 8]: 1.56 mg/kg |
| Cc1c(-c2nnn[nH]2)c(=O)oc2c(Cl)cccc12 [Compound I, reference compound] |  |  | LD50 at 144 h [1, 6]: 1040 mg/kg; minimal effective dose [2, 7]: 6.25 mg/kg |
| CCCCOc1cccc2cc(-c3nnn[nH]3)c(=O)oc12 [Example 31, Sodium salt of 8-n-butoxy-3-(1H-tetrazol-5-yl)coumarin] |  |  | LD50 (mice): 2470 mg/kg; MED (minimum effect dose) ([2]; Table 3, oral 30 minutes before antigen challenge, rats, lowest dose significantly decreasing leaked dye vs control): 1.56 mg/kg |
| COc1cc2cc(-c3nnn[nH]3)c(=O)oc2cc1C [Example 25, 6-Methoxy-7-methyl-3-(1H-tetrazol-5-yl)coumarin] | 500 to 1000 mg/kg | 12.5 mg/kg |  |
| CCOc1cccc2cc(-c3nnn[nH]3)c(=O)oc12 [Example 4, 8-Ethoxy-3-(1H-tetrazol-5-yl)coumarin] | 2500 mg/kg |  | LD50 at 144 h [1, 6]: 2500 mg/kg; minimal effective dose [2, 7]: 6.25 mg/kg; minimal effective dose [2, 8]: 6.25 mg/kg |

| Compound | LD50 at 144 h [1, 4] | minimal effective dose [2, 5] | further results |
| --- | --- | --- | --- |
| COc1cccc2cc(-c3nnn[nH]3)c(=O)oc12 [Example 3, 8-Methoxy-3-(1H-tetrazol-5-yl)coumarin] | 2000 to 3000 mg/kg | 6.25 mg/kg |  |
| CCCCCCCCCOc1cccc2cc(-c3nnn[nH]3)c(=O)oc12 [Example 12, 8-n-Nonyloxy-3-(1H-tetrazol-5-yl)coumarin] | 2000 to 3000 mg/kg | 6.25 mg/kg |  |
| Cc1cc(OC(C)C)c2oc(=O)c(-c3nnn[nH]3)cc2c1 [Example 22, 8-Isopropoxy-6-methyl-3-(1H-tetrazol-5-yl)coumarin] | 2200 mg/kg |  | LD50 at 144 h [1, 6]: 2200 mg/kg; minimal effective dose [2, 7]: 1.56 mg/kg; minimal effective dose [2, 8]: 1.56 mg/kg |
| CCCCOc1cc(C)cc2cc(-c3nnn[nH]3)c(=O)oc12 [Example 2, 8-n-Butoxy-6-methyl-3-(1H-tetrazol-5-yl)coumarin] | 1870 mg/kg |  | LD50 at 144 h [1, 6]: 1870 mg/kg; minimal effective dose [2, 7]: 0.39 mg/kg; minimal effective dose [2, 8]: 0.39 mg/kg |
| O=c1oc2ccccc2cc1-c1nnn[nH]1 |  |  | antiallergic activity [3]: stronger antiallergic activity |
| CCCCCCCOc1cccc2cc(-c3nnn[nH]3)c(=O)oc12 [Example 11, 8-n-Heptyloxy-3-(1H-tetrazol-5-yl)coumarin] | 2000 to 3000 mg/kg | 1.56 mg/kg |  |
| Cc1ccc2oc(=O)c(-c3nnn[nH]3)c(C)c2c1 [J, reference compound] |  |  | LD50 at 144 h [1, 6]: 533 mg/kg; minimal effective dose [2, 7]: 25 mg/kg |
| CCc1cc2cc(-c3nnn[nH]3)c(=O)oc2cc1OC [Example 23, 6-Ethyl-7-methoxy-3-(1H-tetrazol-5-yl)coumarin] | 500 to 1000 mg/kg | 1.56 mg/kg |  |
| CCCCOc1cccc2cc(-c3nnn[nH]3)c(=O)oc12 [Example 8, 8-n-Butoxy-3-(1H-tetrazol-5-yl)coumarin] | 2380 mg/kg |  | LD50 at 144 h [1, 6]: 2380 mg/kg; minimal effective dose [2, 7]: 1.56 mg/kg; minimal effective dose [2, 8]: 1.56 mg/kg |
| CCOc1cc2oc(=O)c(-c3nnn[nH]3)cc2cc1CC=C(C)C [Example 29, 7-Ethoxy-6-(3-methyl-2-butenyl)-3-(1H-tetrazol-5-yl)coumarin] | 500 to 1000 mg/kg | 12.5 mg/kg |  |
| COc1cc2oc(=O)c(-c3nnn[nH]3)cc2cc1CC=C(C)C [Example 28, 7-Methoxy-6-(3-methyl-2-butenyl)-3-(1H-tetrazol-5-yl)coumarin] | 500 to 1000 mg/kg | 1.56 mg/kg |  |
| CC(C)=CCCC(C)=CCCC(C)=CCOc1cccc2cc(-c3nnn[nH]3)c(=O)oc12 [Example 18, 8-Farnesyloxy-3-(1H-tetrazol-5-yl)coumarin] | 1000 to 2000 mg/kg | 6.25 mg/kg |  |
| CCCCCCCCCCCCCCCCCCOc1cccc2cc(-c3nnn[nH]3)c(=O)oc12 [Example 15, 8-n-Octadecyloxy-3-(1H-tetrazol-5-yl)coumarin] | 2000 to 3000 mg/kg | 6.25 mg/kg |  |
| COc1ccc2cc(-c3nnn[nH]3)c(=O)oc2c1C [Example 24, 7-Methoxy-8-methyl-3-(1H-tetrazol-5-yl)coumarin] | 300 to 1000 mg/kg | 6.25 mg/kg |  |
| CCCCCCCCCCCCOc1cccc2cc(-c3nnn[nH]3)c(=O)oc12 [Example 13, 8-n-Dodecyloxy-3-(1H-tetrazol-5-yl)coumarin] | 2000 to 3000 mg/kg | 6.25 mg/kg |  |
| C=CCOc1cccc2cc(-c3nnn[nH]3)c(=O)oc12 [Example 16, 8-Allyloxy-3-(1H-tetrazol-5-yl)coumarin] | 2000 to 3000 mg/kg | 1.56 mg/kg |  |
| C=CCOc1cc(C)cc2cc(-c3nnn[nH]3)c(=O)oc12 [Example 26, 8-Allyloxy-6-methyl-3-(1H-tetrazol-5-yl)coumarin] | 2000 to 3000 mg/kg | 1.56 mg/kg |  |
